Measured values as given in patent publication US20110212913A1, “THERAPEUTIC COMPOSITIONS COMPRISING PHENOLIC ACIDS FOR TREATING CONDITIONS RELATED TO INAPPROPRIATE PLATELET AGGREGATION” (PROVEXIS NATURAL PRODUCTS LIMITED, priority 2008, published 2011).
Values after ≈ are worked out from the molar mass of the structure shown.

Key:
Assay type in all cases: cell-based, human
[1] = system: platelet aggregation in platelet-rich plasma, agonist arachidonic acid; assay: Arachidonic acid-induced platelet aggregation in platelet-rich plasma (aggregometer); conditions: arachidonic acid 500 U/L; for IC50: Homo sapiens, Platelet
Method: (§1) The experimental protocol described below was devised to determine the IC50 values of compounds isolated as described in 1.1.3. Crude bioassays to evaluate inhibition of platelet aggregation in vitro were performed on some crude extracts (data not shown) to help select fine fractions/compounds identified by HPLC for functional activity. This approach was considered necessary to avoid the need to assay each and ever compound (the would be thousands) in the fruit extracts.
(§2) An IC50 value represents the amount of a compound, in mg, required to inhibit by 50% the platelet aggregation induced under standardised conditions in 1 mL platelet-rich plasma, in comparison with control samples.
(§3) Blood for in vitro studies was collected from drug-free, healthy human volunteers, both male and female, aged 18-60 years, with normal platelet function. Subjects declared that they had not consumed drugs or supplements known to affect platelet function for a minimum of 10 days before providing a blood sample. Blood was collected after single venepuncture to an antecubital vein through siliconized needles into plastic citrated blood collection tubes (Sarstedt Monovettes, final concentration sodium citrate, 13 mmol/L). All blood was maintained at 37° C. from the time of blood sampling.
(§4) Platelet-rich plasma (PRP) was obtained by centrifugation of citrated blood for 15 minutes at 200×g, and was adjusted with platelet-poor plasma to a standard platelet number of 320±20×10^9/L prior to use. PRP was used for platelet function measurements within two hours.
(§5) The following agonists were used for platelet function measurements. Adenosine diphosphate (ADP), final concentration 10 μmol/L; collagen, final concentration 5 mg/L; arachidonic acid, final concentration […] (all from Helena Biosciences, Sunderland, UK); thrombin receptor-activating peptide (TRAP), final concentration […] (Sigma-Aldrich, Poole, UK). Agonists were prepared from stock solutions immediately before use, diluting into warmed physiological saline (0.9% NaCI).
(§6) Individual platelet inhibitors were prepared at a concentration of between 500 g/L and 100 g/L in either physiological saline, ultra-pure methanol or ultra-pure DMSO (Sigma-Aldrich, Poole, UK) and stored frozen until required. Stock solutions were then diluted with physiological saline immediately prior to use.
(§7) 450 μL PRP was incubated with 50 μL diluted inhibitor solution at 37° C. for 10 minutes, in low-retention epindorrfs. Inhibitor solutions were diluted such that the final concentration of methanol or DMSO in the PRP sample never exceeded 2%. Suitable control samples, containing 50 μL physiological saline matched for methanol or DMSO content as appropriate, were incubated simultaneously. For each inhibitor compound, 5 incubation concentrations were used; final concentrations of 0.05 mg/mL, 0.10 mg/mL, 1.00 mg/mL, 5.00 mg/mL and 10 mg/mL were used as standard.
(§8) After incubation with platelet inhibitors, PRP samples were transferred to glass cuvettes and the extent of aggregation induced by either ADP, collagen, TRAP or arachidonic acid was monitored over 10 minutes on a platelet aggregometer (PACKS 4, Helena Biosciences, Sunderland, UK). A control sample was run with each sample set. From the aggregation curves generated, the area under the curve was calculated for each PRP sample, and the inhibition of aggregation achieved at each inhibitor concentration was calculated by comparing the area under the curve for these PRP samples with that of the control sample. The inhibition of aggregation was expressed as % inhibition, compared to control, and from the 6 data points obtained per inhibitor compound, a dose-response curve was constructed. This curve was then used to predict the IC50 value for that inhibitor compound, as shown in 1.2, Results, and FIG. 1.
(§9) For each blood sample obtained, 6-point dose-response curves for 2 different inhibitory compounds could be generated. […]

[2] = system: platelet aggregation in platelet-rich plasma, agonist collagen; assay: Collagen-induced platelet aggregation in platelet-rich plasma (aggregometer); conditions: collagen 5 mg/L; for IC50: Homo sapiens, Platelet
Method: as §1, §2, §3, §4, §5, §6, §7, §8, §9

[3] = system: platelet aggregation in platelet-rich plasma, agonist ADP; assay: ADP-induced platelet aggregation in platelet-rich plasma (aggregometer); conditions: ADP 10 μmol/L; for IC50: Homo sapiens, Platelet
Method: as §1, §2, §3, §4, §5, §6, §7, §8, §9

[4] = system: platelet aggregation in platelet-rich plasma, agonist thrombin receptor-activating peptide (TRAP); assay: TRAP-induced platelet aggregation in platelet-rich plasma (aggregometer); conditions: TRAP 25 nmol/L; for IC50: Homo sapiens, Platelet
Method: as §1, §2, §3, §4, §5, §6, §7, §8, §9

[5] = Table 3, mg needed for 50% inhibition in 1 mL PRP, compounds isolated from tomato extract
[6] = Table 4, compounds from sources other than tomatoes, mg per 1 mL PRP

Row | Compound | IC50 [1, 6] | IC50 [2, 6] | IC50 [4, 6] | IC50 [3, 6] | other results
1 | Nc1nc2c(ncn2[C@@H]2O[C@H](CO)[C@@H](O)[C@H]2O)c(=O)[nH]1 [Compound 4, Guanosine] | – | – | – | – | IC50 [1, 5]: 910 µg/mL (≈ 3.21 mM); IC50 [2, 5]: 0.53 mg/mL (≈ 1.87 mM); IC50 [3, 5]: 0.25 mg/mL (≈ 0.883 mM)
2 | O=C(O)c1ccc(O)c(O)c1 [Protocatechuic acid] | 25600 µg/mL (≈ 166 mM) | 23.7 mg/mL (≈ 154 mM) | 30.8 mg/mL (≈ 200 mM) | 30.2 mg/mL (≈ 196 mM) | –
3 | O=C(O)c1ccccc1 [Compound 20, Benzoic acid] | – | – | – | – | IC50 [1, 5]: 15400 µg/mL (≈ 127 mM); IC50 [2, 5]: 17.7 mg/mL (≈ 145 mM); IC50 [4, 5]: 18.2 mg/mL (≈ 149 mM); IC50 [3, 5]: 25.1 mg/mL (≈ 206 mM)
4 | O=c1ccn([C@@H]2O[C@H](CO)[C@@H](O)[C@H]2O)c(=O)[nH]1 [Compound 3, Uridine] | – | – | – | – | IC50 [4, 5]: > 50 mg/mL
5 | Quercetin-3-O-glycoside [Compound 23] | – | – | – | – | IC50 AA [1, 5]: 0.19 mg; IC50 Collagen [2, 5]: 28.43 mg; IC50 TRAP [4, 5]: 12.06 mg; IC50 ADP [3, 5]: 25.18 mg
6 | O=C(O)C=Cc1ccccc1 [Compound 22, Cinnamic acid] | 16100 µg/mL (≈ 109 mM) | 8.76 mg/mL (≈ 59.1 mM) | 18.2 mg/mL (≈ 123 mM) | 26.1 mg/mL (≈ 176 mM) | IC50 [1, 5]: 220 µg/mL (≈ 1.48 mM)
7 | O=c1c(O)c(-c2ccc(O)cc2)oc2cc(O)cc(O)c12 [Compound 31, Kaempferol] | – | – | – | – | IC50 [2, 5]: > 50 mg/mL; IC50 [3, 5]: > 50 mg/mL
8 | O=C1C[C@@H](c2ccc(O)cc2)Oc2cc(O)cc(O)c21 [Compound 32, Naringenin] | – | – | – | – | IC50 [2, 5]: > 50 mg/mL; IC50 [3, 5]: > 50 mg/mL
9 | Nc1nc2c(ncn2[C@@H]2O[C@H](COP(=O)(O)O)[C@@H](O)[C@H]2O)c(=O)[nH]1 [Guanosine 5′-monophosphate] | 360 µg/mL (≈ 0.991 mM) | 0.31 mg/mL (≈ 0.853 mM) | 20.1 mg/mL (≈ 55.4 mM) | 0.1 mg/mL (≈ 0.275 mM) | –
10 | Nc1ncnc2c1ncn2[C@@H]1O[C@H](CO)[C@@H](O)[C@H]1O [Compound 2, Adenosine] | – | – | – | – | IC50 [2, 5]: 0.82 mg/mL (≈ 3.07 mM); IC50 [4, 5]: > 50 mg/mL; IC50 [3, 5]: 0.4 mg/mL (≈ 1.5 mM)
11 | C[C@@H]1O[C@@H](Oc2c(-c3ccc(O)c(O)c3)oc3cc(O)cc(O)c3c2=O)[C@H](O)[C@H](O)[C@H]1O [Quercitrin] | 12000 µg/mL (≈ 26.8 mM) | > 50 mg/mL | 16 mg/mL (≈ 35.6 mM) | > 50 mg/mL | –
12 | Nc1ncnc2c1ncn2[C@@H]1O[C@H](COP(=O)(O)O)[C@@H](O)[C@H]1O [Compound 6, Adenosine 5′-monophospate] | – | – | – | – | IC50 AA [1, 5]: 2.41 mg; IC50 Collagen [2, 5]: 0.28 mg; IC50 TRAP [4, 5]: 24.51 mg; IC50 ADP [3, 5]: 0.12 mg
13 | O=C(/C=C/c1ccc(O)c(O)c1)O[C@@H]1C[C@](O)(C(=O)O)C[C@@H](O)[C@H]1O [Compound 14, Chlorogenic acid] | – | – | – | – | IC50 [1, 5]: 770 µg/mL (≈ 2.17 mM); IC50 [2, 5]: 10.1 mg/mL (≈ 28.5 mM); IC50 [4, 5]: 1.1 mg/mL (≈ 3.1 mM); IC50 [3, 5]: 10.1 mg/mL (≈ 28.4 mM)
14 | Naringin [Compound 26] | – | – | – | – | IC50 AA [1, 5]: 0.31 mg; IC50 Collagen [2, 5]: 29.55 mg; IC50 TRAP [4, 5]: 9.13 mg; IC50 ADP [3, 5]: 28.1 mg
15 | Nc1ncnc2c1ncn2[C@@H]1O[C@H](CO)[C@@H](OP(=O)(O)O)[C@H]1O [Compound 5, Adenosine 3′-monophospate] | – | – | – | – | IC50 AA [1, 5]: 2.41 mg; IC50 Collagen [2, 5]: 0.28 mg; IC50 TRAP [4, 5]: 24.51 mg; IC50 ADP [3, 5]: 0.12 mg
16 | O=c1c(O)c(-c2ccc(O)c(O)c2)oc2cc(O)cc(O)c12 [Compound 30, Quercetin] | – | – | – | – | IC50 [2, 5]: > 50 mg/mL; IC50 [3, 5]: > 50 mg/mL
17 | C[C@@H]1O[C@@H](OC[C@H]2O[C@@H](Oc3c(-c4ccc(O)c(O)c4)oc4cc(O)cc(O)c4c3=O)[C@H](O)[C@@H](O)[C@@H]2O)[C@H](O)[C@H](O)[C@H]1O [Compound 27, Rutin] | – | – | – | – | IC50 [1, 5]: 410 µg/mL (≈ 0.672 mM)

Second part, led by results:

Row | IC50 [1, 6] | IC50 [2, 6] | IC50 [4, 6] | IC50 [3, 6] | Compound | other results
18 | 220 µg/mL (≈ 0.691 mM) | 24.6 mg/mL (≈ 77.3 mM) | 12.9 mg/mL (≈ 40.6 mM) | 22.1 mg/mL (≈ 69.6 mM) | O=c1c(O)c(-c2cc(O)c(O)c(O)c2)oc2cc(O)cc(O)c12 [Myricetin] | –
19 | 14400 µg/mL (≈ 84.9 mM) | 14.4 mg/mL (≈ 84.5 mM) | 18.9 mg/mL (≈ 111 mM) | 20.2 mg/mL (≈ 119 mM) | O=C(O)c1cc(O)c(O)c(O)c1 [Gallic acid] | –
20 | 9480 µg/mL (≈ 57.7 mM) | 28.9 mg/mL (≈ 176 mM) | 17.4 mg/mL (≈ 106 mM) | 32.2 mg/mL (≈ 196 mM) | O=C(O)/C=C/c1ccccc1O [o-Coumaric acid] | –
21 | 5180 µg/mL (≈ 18.1 mM) | > 50 mg/mL | 26.2 mg/mL (≈ 91.5 mM) | > 50 mg/mL | O=c1cc(-c2ccc(O)c(O)c2)oc2cc(O)cc(O)c12 [Luteolin] | –
22 | 24800 µg/mL (≈ 110 mM) | 24.9 mg/mL (≈ 111 mM) | 30.4 mg/mL (≈ 135 mM) | 26.1 mg/mL (≈ 116 mM) | COc1cc(/C=C/C(=O)O)cc(OC)c1O [Sinapic acid] | –
23 | – | 9.3 mg/mL (≈ 34.7 mM) | > 50 mg/mL | 3.5 mg/mL (≈ 13 mM) | OC[C@H]1O[C@@H](n2cnc3c(O)ncnc32)[C@H](O)[C@@H]1O [Inosine] | –
24 | 22500 µg/mL (≈ 113 mM) | 30.8 mg/mL (≈ 155 mM) | 28.3 mg/mL (≈ 143 mM) | 37.2 mg/mL (≈ 188 mM) | COc1cc(C(=O)O)cc(OC)c1O [Syringic acid] | –
